“And” between values parts separate entries of the source, which are not always exact repeats. Identical values can stand only once. “Also recorded” adds a separate entry of the source. Like-named read-outs stand apart in the source and are kept apart here.
Tests used:
[1] = target: recombinant LstiGOBP2 (Loxostege sticticalis, UniProt C6ZDA6); experiment: biochemical; assay type: binding; settings: for binding to LstiGOBP2 (in words): competitive displacement of 1-NPN
Method: Fluorescence spectra were recorded in a right angle configuration on a Lengguang 970 CRT spectrofluorimeter (Shanghai Jingmi, China) at room temperature using a 1-cm light path fluorimeter quartz cuvette. Slit widths of 10 nm were selected for both excitation and emission. The spectra data were processed using 970 CRT 2.0l software.
N-phenyl-1-naphthylamine (1-NPN) was dissolved in methanol to yield a 1 mM stock solution. […] 1-NPN was excited at 337 nm and emission spectra were recorded between 350 and 600 nm. Spectra were recorded with high-speed scanning. All ligands used in competition experiments were dissolved in spectrophotometric-grade methanol. Binding data were collected in three independent measurements.
Bound ligand was evaluated from the values of fluorescence intensity assuming that the protein was 100% active, with a stoichiometry of 1∶1 (protein∶ligand) at saturation. The K1-NPN values were estimated using Prism 5 (GraphPad Software, Inc.) by nonlinear regression for a unique site of binding. The curves were linearized using Scatchard plots.

[2] = test system: L. sticticalis antennae; experiment: Electroantennogram (EAG) recording; set-up: species or system Loxostege sticticalis; settings: for EAG depolarization / EAG response (in words): 10 mg/ml in hexane; for EAG depolarization: highest EAG responses; for EAG response (in words): adult antennae
Method: Antennae of adult moths were excised at the base and immediately placed on an EAG Micromanipulator MP-15 (Syntech) platform for EAG. Antennae were attached to two electrode holders with non-drying clay (Spectra 360 Electrode Gel). […] Pure chemicals were diluted with hexane to a final concentration of 10 mg/ml. EAG signals were amplified, monitored, and analyzed with EAG-Pro software (Syntech). The preparation was held in a humidified air stream delivered by a Syntech stimulus controller (CS-55 model; Syntech) at 500 ml/min, to which a stimulus pulse of 40 ml/min was added for […]. Signals were recorded for 10 sec, beginning at 2 sec before the onset of the stimulus pulse. An aliquot (10 µl) of each stimulus was loaded onto a filter paper strip. After each sample was tested, hexane was tested as a control. EAG responses of at least three antennae were recorded.

[3] = test system: LstiGOBP1; set-up: method as in earlier work; settings: cited from earlier work
[4] = at ligand concentration 20 µM, protein 2 µM, 1-NPN probe, read-out: Int (fluorescence intensity as percent of the initial fluorescence)
[5] = calculated from IC50: Ki = [IC50]/1+[1-NPN]/K1-NPN, read-out: Ki (relative dissociation constant)
[6] = read-out: Int (fluorescence intensity as percent of the initial fluorescence)
[7] = protein 2 µM, 1-NPN probe, ligand titrated to 2–50 µM in methanol, read-out: IC50 (concentration of ligand halving the initial fluorescence intensity)
[8] = IC50 (concentration of ligand halving the initial fluorescence intensity), protein 2 µM, 1-NPN probe, ligand titrated to 2–50 µM in methanol
[9] = Ki (relative dissociation constant), calculated from IC50: Ki = [IC50]/1+[1-NPN]/K1-NPN
[10] = read-out: Int (fluorescence intensity as percent of the initial fluorescence), at ligand concentration 20 µM, protein 2 µM, 1-NPN probe
[11] = at ligand concentration 20 µM, protein 2 µM, 1-NPN probe

Sequence of recombinant LstiGOBP2 (C6ZDA6 entry or part of it): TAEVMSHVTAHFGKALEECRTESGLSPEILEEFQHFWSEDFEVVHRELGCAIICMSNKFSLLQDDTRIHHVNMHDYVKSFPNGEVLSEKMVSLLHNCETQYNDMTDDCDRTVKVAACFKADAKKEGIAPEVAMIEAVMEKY

In the case of C=CC(C)(O)CCC=C(C)C (single isomer, unassigned; (-)) [(-)-Linalool], the IC50 [1] is reported as 28 µM, the Ki [1] is reported as 16.5 µM and the activity at 20 µM [1, 4] is reported as 53%.

Compound CCCCCCC=O [1-Heptanal] has an IC50 [1] of 24 µM, a Ki [1, 5] of 14.1 µM and an activity at 20 µM [1, 6] of 52%.

For CCCCCCCO [1-Heptanol], the IC50 [1] was 10.5 µM, the Ki [1, 5] was 6.2 µM and the activity at 20 µM [1, 6] was 40%. For the same compound, the EAG depolarization [2] was −1.6 mV.

In the case of CCCCCC=O [1-Hexanal], the IC50 [1] is reported as 12.5 µM, the Ki [1] is reported as 7.3 µM and the “binding to LstiGOBP2 (in words)” value [1] is reported as “high affinities”. For the same compound, the activity at 20 µM [1, 6] was 36%.

For CCCCCCO [1-Hexanol], the IC50 [1] was 11 µM, the Ki [1, 5] was 6.5 µM and the activity at 20 µM [1, 6] was 42%.

Work on c1ccc(Nc2cccc3ccccc23)cc1 [1-NPN, N-phenyl-1-naphthylamine, reference compound] yielded a Kd [1] of ~1440 nM.

With CCCCCCCCC=O [1-Nonanal] the activity at 20 µM [1, 4] was 66%, the Ki [1, 5] was 22.9 µM and the “binding to LstiGOBP2 (in words)” value [1] was “very weak binding affinity”. It also gave an IC50 [1, 7] of 39 µM.

In the case of CCCCCCCC=O [1-Octanal], the activity at 20 µM [1, 4] is reported as 52%, the Ki [1, 5] is reported as 14.1 µM and the IC50 [1, 7] is reported as 24 µM. The EAG depolarization [2] was −1.6 mV.

In the case of C=CC(O)CCCCC (stereo not shown) [1-Octen-3-ol], the “EAG response (in words)” value [2] is given as “strong responses; also recorded: intensive responses” and the “binding to LstiGOBP1 (in words)” value [3] is given as “present an affinity”.

For CCCCC=O [1-Pentanal], the activity at 20 µM [1, 4] was 46%, the Ki [1, 5] was 8.2 µM and the “binding to LstiGOBP2 (in words)” value [1] was “high affinities”. The IC50 [1, 7] was 14 µM.

With CC(C)(C)c1ccc(O)c(C(C)(C)C)c1 [2,4-Di-tert-butylphenol] the IC50 [1] was 20 µM, the Ki [1] was 11.8 µM and the “binding to LstiGOBP2 (in words)” value [1] was “high affinity”. The activity at 20 µM [1, 6] was 50% and the “EAG response (in words)” value [2] was “weak effects; also recorded: weak response”.

For CC=CCCCO [4-Hexen-1-ol], the IC50 [1] was 26 µM, the Ki [1] was 15.3 µM and the activity at 20 µM [1, 4] was 58%.

With CC(C)=CCCC(C)O (stereo not shown) [6-Methyl-5-hepten-2-ol] the activity at 20 µM [1, 4] was 63%, the Ki [1, 5] was 16.5 µM and the IC50 [1, 7] was 28 µM.

For CC(=O)CCC=C(C)C [6-Methyl-5-hepten-2-one], the IC50 [1, 8] was 28 µM, the Ki [1, 9] was 16.5 µM and the activity at 20 µM [1, 10] was 64%.

For C=C1CC/C=C(\C)CC[C@@H]2[C@@H]1CC2(C)C [(-)-Trans-caryophyllene], the IC50 [1] was > 50 µM, the “binding to LstiGOBP2 (in words)” value [1] was “very weak binding affinity” and the activity at 20 µM [1, 6] was 86%.

Work on O=Cc1ccccc1 [Benzaldehyde] yielded an IC50 [1, 8] of 19 µM, a Ki [1, 9] of 11.2 µM and an activity at 20 µM [1, 10] of 48%. For the same compound, the “EAG response (in words)” value [2] was “weak response”.

For c1ccc2scnc2c1 [Benzothiazole], the IC50 [1] was 22 µM, the Ki [1] was 12.9 µM and the activity at 20 µM [1, 6] was 52%.

With C=C1C2CCC(C2)C1(C)C (stereo not shown) [Camphene] the IC50 [1, 7] was 23 µM and the activity at 20 µM [1, 6] was 54%.

CC12CCC(CC1=O)C2(C)C (stereo not shown) [Camphor] gave an IC50 [1] of 14 µM, a Ki [1, 5] of 8.2 µM and an activity at 20 µM [1, 6] of 41%.

Compound O=C/C=C/c1ccccc1 [Cinnamaldehyde] has an IC50 [1, 8] of 17 µM, a Ki [1, 9] of 10 µM and an activity at 20 µM [1, 10] of 45%. For the same compound, the “EAG response (in words)” value [2] was “weak response”.

CCC/C=C\CO [Cis-2-hexen-1-ol] showed an IC50 [1] of 24 µM, a Ki [1] of 14.1 µM and an activity at 20 µM [1, 4] of 59%.

For CC/C=C\CCO [Cis-3-hexen-1-ol], the IC50 [1] was 19 µM, the Ki [1] was 11.2 µM and the “binding to LstiGOBP2 (in words)” value [1] was “high binding affinities”. For the same compound, the activity at 20 µM [1, 6] was 49% and the “EAG response (in words)” value [2] was “high EAG response”.

In the case of CC/C=C\CCOC(C)=O [Cis-3-hexenyl acetate], the activity at 20 µM [1, 4] is reported as 57%, the Ki [1, 5] is reported as 17.1 µM and the IC50 [1, 7] is reported as 29 µM.

With COC(=O)c1ccccc1C(=O)OC [Dimethyl phthalate] the IC50 [1, 8] was 20 µM and 36 µM, the Ki [1, 9] was 11.8 µM and 21.2 µM and the “Int (fluorescence intensity as percent of the initial fluorescence)” value ([1]; at ligand concentration 20 µM, protein 2 µM, 1-NPN probe, 20 µM) was 64%. For the same compound, the activity at 20 µM [1, 10] was 50%.

With CC(C)=CCC/C(C)=C/CO [Geraniol] the IC50 [1, 8] was 22 µM, the Ki [1, 9] was 12.9 µM and the activity at 20 µM [1, 10] was 54%.

In the case of COC(=O)c1ccccc1O [Methyl salicylate], the IC50 [1] is reported as > 50 µM and the activity at 20 µM [1, 6] is reported as 83%.

With C=CC(=C)CCC=C(C)C [Myrcene] the activity at 20 µM [1, 4] was 56%, the Ki [1, 5] was 14.7 µM and the IC50 [1, 7] was 25 µM.

In the case of CCCCCCCCCCCCCCC [Pentadecane], the “binding to LstiGOBP1 (in words)” value [3] is listed as “bind”.

For O=CCc1ccccc1 [Phenyl acetaldchyde], the “Int (fluorescence intensity as percent of the initial fluorescence)” value [1, 11] was 50%, the Ki [1, 5] was 11.8 µM and the IC50 [1, 7] was 20 µM.

In the case of C=C(C)[C@H]1CC=C(C)CC1 [R-(+)-Limonene], the “binding to LstiGOBP2 (in words)” value [1] is given as “do not show affinities”, the “EAG response (in words)” value [2] is given as “strong responses” and the “binding to LstiGOBP1 (in words)” value [3] is given as “do not show affinities”.

In the case of CCC/C=C/CO [Trans-2-hexen-1-ol], the “EAG response (in words)” value [2] is given as “intensive responses”, the “EAG response (in words)” value ([2]; listed as E-2-hexeno1) is given as “strong responses” and the “binding to LstiGOBP1 (in words)” value [3] is given as “present an affinity”.

For CCC/C=C/C=O [Trans-2-hexenal], the IC50 [1] was 10.5 µM, the Ki [1] was 6.2 µM and the “binding to LstiGOBP2 (in words)” value [1] was “high binding affinities”. The “EAG response (in words)” value [2] was “high EAG response”.

CCC/C=C/COC(C)=O [Trans-2-hexenyl acetate] showed an activity at 20 µM [1, 4] of 59%, a Ki [1, 5] of 16.5 µM and an IC50 [1, 7] of 28 µM.

In the case of CC/C=C/CCCCCCCCCCOC(C)=O [Trans-11-tetradecen-1-yl acetate], the activity at 20 µM [1, 4] is reported as 48%, the Ki [1, 5] is reported as 10.6 µM and the “binding to LstiGOBP2 (in words)” value [1] is reported as “bind strongly; also recorded: high binding affinity”. The IC50 [1, 7] was 18 µM, the “EAG response of the male antennae (in words)” value ([2]; male antennae, 10 mg/ml) was “highest among all the volatiles tested” and the “EAG response difference between males and females” value ([2]; male vs female antennae) was “significantly different”.

In the case of CC1=CC[C@H](C(C)C)C=C1 [α-Phellandrene], the “binding to LstiGOBP2 (in words)” value [1] is listed as “do not show affinities”, the “EAG response (in words)” value [2] is listed as “strong responses” and the “binding to LstiGOBP1 (in words)” value [3] is listed as “do not show affinities”.

With CC(=O)/C=C/C1C(C)=CCCC1(C)C (stereo not drawn) [α-ionone] the IC50 [1, 8] was 8 µM, the Ki [1, 9] was 4.7 µM and the “binding to LstiGOBP2 (in words)” value [1] was “strongest affinities”. The activity at 20 µM [1, 10] was 39% and the “EAG response (in words)” value [2] was “weak effects; also recorded: failed to elicit a strong electrophysiological response”.

In the case of CC(=O)/C=C/C1=C(C)CCCC1(C)C [β-ionone], the IC50 [1, 8] is reported as 11 µM, the Ki [1, 9] is reported as 6.5 µM and the “binding to LstiGOBP2 (in words)” value [1] is reported as “strongest affinities”. The activity at 20 µM [1, 10] was 37% and the “EAG response (in words)” value [2] was “weak effects; also recorded: failed to elicit a strong electrophysiological response”.

In the case of Iso-octanol, the “Int (fluorescence intensity as percent of the initial fluorescence)” value [1, 11] is reported as 58%, the Ki [1, 5] is reported as 16.5 µM and the IC50 [1, 7] is reported as 28 µM.

Source: publication PMC3316592, “Functional Analysis of General Odorant Binding Protein 2 from the Meadow Moth, Loxostege sticticalis L. (Lepidoptera: Pyralidae)” (PLoS ONE, 2012)
